According to patent US20210221866A1, “PROTEASE-RESISTANT LIPIDATED GLP-1 ANALOGS” (MEDIMMUNE LIMITED, priority 2015, published 2021):
Read-outs that look alike come from different tables or passages of the source. Numbered stars: 1 amine (or outer) side, 2 acyl side, 3 side chain; on linkers, the order of the positions; unused ones are H or OH. Square brackets hold non-standard residues; d marks the D form. Side chains are listed from the residue outwards. Peptide text beside a SMILES is read from it. * marks the point of attachment. C18 diacid = O=C(O)CCCCCCCCCCCCCCCCC(=O)*; γGlu = O=C(O)[C@H](CCC(=O)[*:2])N[*:1]; αMeF = C[C@](N)(Cc1ccccc1)C(=O)O; αMeK = C[C@](N)(CCCCN)C(=O)O; αMeS = C[C@](N)(CO)C(=O)O; AEEA = NCCOCCOCC(=O)O; Aib = CC(C)(N)C(=O)O

What was measured:
Assay type in all cases: cell-based
[1] = target: T1, human glucagon receptor (GCGR) (Homo sapiens, UniProt P47871); assay: cAMP assay, human GCGR cells; details: read-out: Primary assay EC50 Gluc-R
T1 construct: expressed in transfected cells; host or cells: HEK293 cells or CHO cells
T1 sequence (P47871 26-477): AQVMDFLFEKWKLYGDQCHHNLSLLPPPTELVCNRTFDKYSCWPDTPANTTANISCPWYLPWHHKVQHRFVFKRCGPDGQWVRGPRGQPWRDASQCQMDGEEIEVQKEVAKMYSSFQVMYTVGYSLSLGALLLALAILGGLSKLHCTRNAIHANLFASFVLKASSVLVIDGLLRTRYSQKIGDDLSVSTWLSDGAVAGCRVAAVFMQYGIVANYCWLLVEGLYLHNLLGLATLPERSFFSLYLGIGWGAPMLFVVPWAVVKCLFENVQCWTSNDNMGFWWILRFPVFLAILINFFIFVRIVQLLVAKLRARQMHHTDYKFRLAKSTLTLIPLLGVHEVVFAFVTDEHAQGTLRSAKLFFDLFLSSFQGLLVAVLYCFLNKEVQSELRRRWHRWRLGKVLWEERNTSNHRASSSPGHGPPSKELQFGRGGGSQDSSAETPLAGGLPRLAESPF
Summary of the method: (§1)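 Peptide-stimulated cAMP measured by two-step HTRF after a 30 min room-temperature incubation with receptor-expressing cells (hGLP-1R, hGIPR at 1×10^5 cells/ml; hGCGR at 2×10^5 cells/ml). Duplicate dilutions; EC50 from 4-parameter logistic fit of % Delta F.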

[2] = target: T2, human GLP-1 receptor (GLP-1R) (Homo sapiens, UniProt P43220); assay: cAMP assay, human GLP-1R cells
T2 construct: expressed in transfected cells; host or cells: HEK293 cells or CHO cells
T2 sequence (P43220 24-463): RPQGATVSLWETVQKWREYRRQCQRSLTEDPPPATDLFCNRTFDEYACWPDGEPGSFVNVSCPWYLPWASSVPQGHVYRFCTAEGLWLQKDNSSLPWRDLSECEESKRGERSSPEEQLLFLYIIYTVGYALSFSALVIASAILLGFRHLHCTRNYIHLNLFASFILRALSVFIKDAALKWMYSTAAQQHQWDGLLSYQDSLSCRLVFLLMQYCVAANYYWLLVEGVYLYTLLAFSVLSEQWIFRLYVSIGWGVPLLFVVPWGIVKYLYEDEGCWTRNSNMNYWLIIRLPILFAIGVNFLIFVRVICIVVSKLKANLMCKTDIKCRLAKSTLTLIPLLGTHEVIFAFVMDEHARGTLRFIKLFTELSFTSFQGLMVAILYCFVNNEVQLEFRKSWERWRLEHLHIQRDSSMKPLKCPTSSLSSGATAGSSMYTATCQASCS
Summary of the method: as §1

GLP-1R (INS1e cells) = target: T3, GLP-1R (INS1e cells) (Rattus norvegicus, UniProt P32301); assay: INS1e assay, cAMP activity at GLP-1R; details: Table 8, substituted and mono-lipidated peptides
T3 construct: endogenous in cells; host or cells: INS1e cells
T3 sequence (P32301 22-463): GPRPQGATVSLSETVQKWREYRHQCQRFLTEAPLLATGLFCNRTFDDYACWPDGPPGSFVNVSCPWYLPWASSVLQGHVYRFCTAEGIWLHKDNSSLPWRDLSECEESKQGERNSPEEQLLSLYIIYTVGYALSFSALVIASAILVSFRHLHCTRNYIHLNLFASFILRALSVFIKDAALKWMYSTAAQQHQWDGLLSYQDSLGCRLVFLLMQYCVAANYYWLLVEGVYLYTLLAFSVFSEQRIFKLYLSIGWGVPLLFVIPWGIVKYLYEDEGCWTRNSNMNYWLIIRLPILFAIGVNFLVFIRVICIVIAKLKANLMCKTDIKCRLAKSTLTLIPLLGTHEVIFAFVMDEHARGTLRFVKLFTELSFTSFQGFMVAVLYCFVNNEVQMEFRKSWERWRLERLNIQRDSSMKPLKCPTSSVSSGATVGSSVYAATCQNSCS

[3] = target: T4, human glucose-dependent insulinotropic peptide receptor (GIPR) (Homo sapiens, UniProt P48546); assay: cAMP assay, human GIPR cells; details: read-out: Primary assay EC50 GIP-R
T4 construct: expressed in transfected cells; host or cells: HEK293 cells or CHO cells
T4 sequence (P48546 22-466): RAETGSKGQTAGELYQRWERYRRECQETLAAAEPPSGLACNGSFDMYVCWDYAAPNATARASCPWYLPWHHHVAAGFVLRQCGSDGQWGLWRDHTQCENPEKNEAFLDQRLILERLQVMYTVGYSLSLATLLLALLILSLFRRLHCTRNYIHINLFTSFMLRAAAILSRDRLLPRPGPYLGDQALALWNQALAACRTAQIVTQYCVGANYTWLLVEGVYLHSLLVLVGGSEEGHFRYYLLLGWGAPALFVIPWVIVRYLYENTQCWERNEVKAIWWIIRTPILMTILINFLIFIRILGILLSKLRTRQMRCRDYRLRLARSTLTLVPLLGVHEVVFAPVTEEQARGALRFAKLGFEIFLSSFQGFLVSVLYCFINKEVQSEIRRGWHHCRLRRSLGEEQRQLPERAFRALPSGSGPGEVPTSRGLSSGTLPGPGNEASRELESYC
Summary of the method: as §1

[4] = cAMP activity, second determination (n2)
[5] = cAMP activity, first determination (n1), read-out: Primary assay EC50 GLP-1R n1
[6] = cAMP activity, mean of n1 and n2, read-out: Mean pM GLP-1R
[7] = cAMP activity, second determination (n2), read-out: Primary assay EC50 GLP-1R n2
[8] = mean of n1 and n2, read-out: INS1e assay EC50 Mean pM GLP-1R
[9] = replicate n1, read-out: INS1e assay EC50 GLP-1R n1
[10] = replicate n2, read-out: INS1e assay EC50 GLP-1R n2
[11] = cAMP activity, first determination (n1)

SMILES | EC50 [1, 4] | EC50 [2, 5] | EC50 [2, 6] | EC50 [2, 7] | EC50 (GLP-1R (INS1e cells); [8]) | EC50 (GLP-1R (INS1e cells); [9]) | EC50 (GLP-1R (INS1e cells); [10]) | EC50 [3, 11] | EC50 [3, 4] | EC50 ([1]; second replicate (n2)) | EC50 ([2]; mean of n1 and n2, read-out: Mean pM GLP-1R) | EC50 ([2]; replicate n1, read-out: Primary assay EC50 GLP-1R n1) | EC50 ([2]; replicate n2, read-out: Primary assay EC50 GLP-1R n2) | EC50 ([3]; first replicate) | EC50 ([3]; second replicate (n2))
CC[C@H](C)[C@H](NC(=O)[C@](C)(Cc1ccccc1)NC(=O)[C@H](CCC(=O)O)NC(=O)[C@H](CCCCNC(=O)COCCOCCNC(=O)COCCOCCNC(=O)CC[C@H](NC(=O)CCCCCCCCCCCCCCCCC(=O)O)C(=O)O)NC(=O)[C@H](C)NC(=O)[C@H](C)NC(=O)[C@H](CCC(=O)O)NC(=O)CNC(=O)[C@H](CCC(=O)O)NC(=O)[C@H](CC(C)C)NC(=O)[C@H](Cc1ccc(O)cc1)NC(=O)[C@H](CO)NC(=O)[C@](C)(CO)NC(=O)[C@@H](NC(=O)[C@H](CC(=O)O)NC(=O)[C@H](CO)NC(=O)[C@@H](NC(=O)[C@](C)(Cc1ccccc1)NC(=O)[C@H](CO)NC(=O)CNC(=O)[C@H](CCC(=O)O)NC(=O)C(C)(C)NC(=O)[C@@H](N)Cc1c[nH]cn1)[C@@H](C)O)C(C)C)C(=O)N[C@@H](C)C(=O)N[C@@](C)(Cc1ccccc1)C(=O)N[C@H](C(=O)N[C@H](C(=O)N[C@@](C)(CCCCN)C(=O)NCC(=O)NCC(N)=O)C(C)C)C(C)C [compound 47] (H-H[Aib]EGS[αMeF]TSDV[αMeS]SYLEGEAAK([AEEA-AEEA-γGlu-C18 diacid])E[αMeF]IA[αMeF]VV[αMeK]GG-NH2; N-terminus assumed) | ≥ 25 nM | 37 pM | 43.3 pM | 50 pM | 9670 pM | 7130 pM | 12200 pM | ≥ 25 nM | ≥ 25 nM |  |  |  |  |  | 
CC[C@H](C)[C@H](NC(=O)[C@](C)(Cc1ccccc1)NC(=O)[C@H](CCC(=O)O)NC(=O)[C@](C)(CCCCN)NC(=O)[C@H](C)NC(=O)[C@H](C)NC(=O)[C@H](CCC(=O)O)NC(=O)CNC(=O)[C@H](CCC(=O)O)NC(=O)[C@H](CCCCNC(=O)COCCOCCNC(=O)COCCOCCNC(=O)CC[C@H](NC(=O)CCCCCCCCCCCCCCCCC(=O)O)C(=O)O)NC(=O)[C@](C)(Cc1ccccc1)NC(=O)[C@H](CO)NC(=O)[C@](C)(CO)NC(=O)[C@@H](NC(=O)[C@H](CC(=O)O)NC(=O)[C@H](CO)NC(=O)[C@@H](NC(=O)[C@](C)(Cc1ccccc1)NC(=O)[C@H](CO)NC(=O)CNC(=O)[C@H](CCC(=O)O)NC(=O)C(C)(C)NC(=O)[C@@H](N)Cc1c[nH]cn1)[C@@H](C)O)C(C)C)C(=O)N[C@@H](C)C(=O)N[C@@](C)(Cc1ccccc1)C(=O)N[C@H](C(=O)N[C@H](C(=O)N[C@@](C)(CCCCN)C(=O)NCC(=O)NCC(N)=O)C(C)C)C(C)C [compound 115] (H-H[Aib]EGS[αMeF]TSDV[αMeS]S[αMeF]K([AEEA-AEEA-γGlu-C18 diacid])EGEAA[αMeK]E[αMeF]IA[αMeF]VV[αMeK]GG-NH2) | ≥ 25.3 nM | 6 pM | 6 pM | 5.39 pM | 544 pM | 593 pM | 494 pM | ≥ 25 nM | ≥ 25.3 nM |  |  |  |  |  | 

Further compounds by falling EC50 (GLP-1R (INS1e cells); [8]), results first:

EC50 [1, 4] | EC50 [2, 5] | EC50 [2, 6] | EC50 [2, 7] | EC50 (GLP-1R (INS1e cells); [8]) | EC50 (GLP-1R (INS1e cells); [9]) | EC50 (GLP-1R (INS1e cells); [10]) | EC50 [3, 11] | EC50 [3, 4] | EC50 ([1]; second replicate (n2)) | EC50 ([2]; mean of n1 and n2, read-out: Mean pM GLP-1R) | EC50 ([2]; replicate n1, read-out: Primary assay EC50 GLP-1R n1) | EC50 ([2]; replicate n2, read-out: Primary assay EC50 GLP-1R n2) | EC50 ([3]; first replicate) | EC50 ([3]; second replicate (n2)) | SMILES
≥ 26 nM | 920 pM | 1560 pM | 2200 pM | 68000 pM | 52600 pM | 83400 pM | ≥ 26 nM | ≥ 26 nM |  |  |  |  |  |  | CC[C@H](C)[C@H](NC(=O)[C@](C)(Cc1ccccc1)NC(=O)[C@H](CCC(=O)O)NC(=O)[C@H](CCCCNC(=O)COCCOCCNC(=O)COCCOCCNC(=O)CC[C@H](NC(=O)CCCCCCCCCCCCCCCCC(=O)O)C(=O)O)NC(=O)[C@H](C)NC(=O)[C@H](C)NC(=O)[C@H](CCC(=O)O)NC(=O)CNC(=O)[C@H](CCC(=O)O)NC(=O)[C@H](CC(C)C)NC(=O)[C@](C)(Cc1ccccc1)NC(=O)[C@H](CO)NC(=O)[C@H](CO)NC(=O)[C@@H](NC(=O)[C@H](CC(=O)O)NC(=O)[C@H](CO)NC(=O)[C@@H](NC(=O)[C@](C)(Cc1ccccc1)NC(=O)[C@H](CO)NC(=O)CNC(=O)[C@H](CCC(=O)O)NC(=O)C(C)(C)NC(=O)[C@@H](N)Cc1c[nH]cn1)[C@@H](C)O)C(C)C)C(=O)N[C@@H](C)C(=O)N[C@@](C)(Cc1ccccc1)C(=O)N[C@H](C(=O)N[C@H](C(=O)N[C@@](C)(CCCCN)C(=O)NCC(=O)NCC(N)=O)C(C)C)C(C)C [compound 46]
 |  |  |  | 1460 pM | 787 pM | 2130 pM |  |  | ≥ 25 nM | 18.3 pM | 29 pM | 7.5 pM | ≥ 25 nM | ≥ 25 nM | CC[C@H](C)[C@H](NC(=O)[C@](C)(Cc1ccccc1)NC(=O)[C@H](CCC(=O)O)NC(=O)[C@](C)(CCCCN)NC(=O)[C@H](C)NC(=O)[C@H](C)NC(=O)[C@H](CCC(=O)O)NC(=O)CNC(=O)[C@H](CCC(=O)O)NC(=O)[C@H](CC(C)C)NC(=O)[C@](C)(Cc1ccccc1)NC(=O)[C@H](CO)NC(=O)[C@](C)(CO)NC(=O)[C@@H](NC(=O)[C@H](CC(=O)O)NC(=O)[C@H](CO)NC(=O)[C@@H](NC(=O)[C@](C)(Cc1ccccc1)NC(=O)[C@H](CO)NC(=O)CNC(=O)[C@H](CCC(=O)O)NC(=O)C(C)(C)NC(=O)[C@@H](N)Cc1c[nH]cn1)[C@@H](C)O)C(C)C)C(=O)N[C@@H](C)C(=O)N[C@@](C)(Cc1ccccc1)C(=O)N[C@H](C(=O)N[C@H](C(=O)N[C@@H](CCCCNC(=O)COCCOCCNC(=O)COCCOCCNC(=O)COCCOCCNC(=O)CCCCCCCCCCCCCCCCC(=O)O)C(=O)NCC(=O)NCC(N)=O)C(C)C)C(C)C [compound 199]
≥ 25 nM | 21 pM | 18 pM | 14.8 pM | 970 pM | 220 pM | 1720 pM | ≥ 25 nM | ≥ 25 nM |  |  |  |  |  |  | CC[C@H](C)[C@H](NC(=O)[C@](C)(Cc1ccccc1)NC(=O)[C@H](CCC(=O)O)NC(=O)[C@](C)(CCCCN)NC(=O)[C@H](C)NC(=O)[C@H](C)NC(=O)[C@H](CCC(=O)O)NC(=O)CNC(=O)[C@H](CCC(=O)O)NC(=O)[C@H](CC(C)C)NC(=O)[C@](C)(Cc1ccccc1)NC(=O)[C@H](CO)NC(=O)[C@](C)(CO)NC(=O)[C@@H](NC(=O)[C@H](CC(=O)O)NC(=O)[C@H](CO)NC(=O)[C@@H](NC(=O)[C@](C)(Cc1ccccc1)NC(=O)[C@H](CO)NC(=O)CNC(=O)[C@H](CCC(=O)O)NC(=O)C(C)(C)NC(=O)[C@@H](N)Cc1c[nH]cn1)[C@@H](C)O)C(C)C)C(=O)N[C@@H](CCCCNC(=O)COCCOCCNC(=O)COCCOCCNC(=O)CC[C@H](NC(=O)CCCCCCCCCCCCCCCCC(=O)O)C(=O)O)C(=O)N[C@@](C)(Cc1ccccc1)C(=O)N[C@H](C(=O)N[C@H](C(=O)N[C@@](C)(CCCCN)C(=O)NCC(=O)NCC(N)=O)C(C)C)C(C)C [compound 105] (H-H[Aib]EGS[αMeF]TSDV[αMeS]S[αMeF]LEGEAA[αMeK]E[αMeF]IK([AEEA-AEEA-γGlu-C18 diacid])[αMeF]VV[αMeK]GG-NH2; N-terminus assumed)
